Common to all, as to assay: NCI anticancer screen, dose series, 48 h
Assay [1] concerns CCRF-CEM leukemia.
Assay [2] relates to A549 NSCLC.
For assay [3], the system named is OVCAR-4 ovarian.
The test system of assay [4] is UO-31 renal.
The test system of assay [5] is HOP-62 NSCLC.
Assay [6] has as its system SW-620 colon.
Assay [7] concerns OVCAR-3 ovarian.
Assay [8] has as its system SF-268 CNS.

The structures appear in SMILES notation.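 Growth conditions: 96-well plates. Treatment: test compound, 48 hours, 5 concentrations. Analysis: linear interpolation between bracketing concentrations; unreached endpoints set to highest concentration. Abbreviation: GI50, concentration required for 50% inhibition of growth. TGI: concentration producing complete growth inhibition.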 Where only a bound is given, the exact number is not on record here.

Turning to `Clc1ccc(CO/N=C(\Cn2ccnc2)c2ccc(Cl)cc2Cl)c(Cl)c1`, the GI50 in assay [1] was 1.87 µM; in assay [2], 1.55 µM; in assay [3], 1.36 µM; in assay [4] it was 1.34 µM; in assay [5] it was 1.56 µM; in assay [6] it was 1.55 µM. Besides, the GI50 in assay [7] is 1.66 µM. Further, the TGI in assay [1] was 4.62 µM; in assay [2] it was 3.32 µM; in assay [3], 2.67 µM; in assay [4], 2.79 µM; in assay [5], 2.9 µM; in assay [6], 3.2 µM. In assay [7], this molecule had a TGI of 3.12 µM.
For `Cc1cc(C)nc(SC2=C(Nc3cccc(Cl)c3)C(=O)N(Cc3ccccc3)C2=O)n1`, the GI50 is above 170 µM in assay [8]; above 170 µM in assay [1]; above 170 µM in assay [2]; above 170 µM in assay [3]; above 170 µM in assay [4]; 42.3 µM in assay [5]. Moreover, the GI50 in assay [6] and in assay [7] was above 170 µM throughout. Further, the TGI in assay [8], in assay [1], in assay [2], in assay [3], in assay [4] and in assay [5] was above 170 µM each time. Further, the TGI in assay [6] and in assay [7] was above 170 µM throughout.
As to `COc1ccc(-c2nc(-c3nc4cc(C)c(C)cc4[nH]3)cc3c2[nH]c2ccccc23)cc1`, the GI50 is 12.7 µM in assay [8]; 2.51 µM in assay [1]; 3.94 µM in assay [2]; 6.98 µM in assay [3]; 2.53 µM in assay [4]; 7.63 µM in assay [5]. Besides, the GI50 was 7.54 µM in assay [6] and 2.25 µM in assay [7]. Moreover, the TGI is above 100 µM in assay [8]; 7.56 µM in assay [1]; above 100 µM in assay [2]; above 100 µM in assay [3]; 52.5 µM in assay [4]; above 100 µM in assay [5]. Also, the TGI was above 100 µM in assay [6] and 4.6 µM in assay [7].
As for `[N-]=[N+]=CC(=O)OCC(N)C(=O)O` (stereo not drawn), the GI50 in assay [8] was 1.89 µM; in assay [1], 0.623 µM; in assay [2], 0.711 µM; in assay [3] it was 4.29 µM; in assay [4], 4.92 µM; in assay [5], 2.26 µM. In addition, the GI50 in assay [6] was 0.649 µM; in assay [7], 3.73 µM. Moreover, the TGI in assay [8] was above 100 µM; in assay [1], above 100 µM; in assay [2], 2.86 µM; in assay [3], above 100 µM; in assay [4] it was above 100 µM; in assay [5], above 100 µM. Also, the TGI in assay [6] and in assay [7] was above 100 µM in each case.
Turning to `COC(=O)c1c2c(c(C)[n+]([O-])c1C)C(=O)C(NCc1ccc(F)c(F)c1)=CC2=O`, the GI50 is 2.31 µM in assay [8]; 1.72 µM in assay [1]; 2.1 µM in assay [2]; 1.03 µM in assay [3]; 1.94 µM in assay [4]; 2.45 µM in assay [5]. In addition, the results for the GI50 in assay [6] and in assay [7] were 2.17 µM and 0.333 µM, respectively. For the same molecule, the TGI in assay [8] was 7.47 µM; in assay [1], 4.57 µM; in assay [2] it was 6.17 µM; in assay [3], 2.22 µM; in assay [4] it was 6.9 µM; in assay [5], 7.47 µM. Also, the results for the TGI in assay [6] and in assay [7] were 6.89 µM and 1.09 µM, respectively.
Consider `Cc1cccc(N=C2c3cc([N+](=O)[O-])ccc3-c3c2cc([N+](=O)[O-])cc3[N+](=O)[O-])c1`, for which the GI50 was 6.33 µM in assay [8]; 3.87 µM in assay [1]; 12.3 µM in assay [2]; 6.98 µM in assay [3]; 10.9 µM in assay [4]; 4.28 µM in assay [5]. Moreover, the GI50 in assay [6] is 2.01 µM; in assay [7], 2.95 µM. Moreover, the TGI was 40.8 µM in assay [8]; above 100 µM in assay [1]; 32.9 µM in assay [2]; above 100 µM in assay [3]; 29.9 µM in assay [4]; 19.9 µM in assay [5]. For the same molecule, the TGI in assay [6] came out at 3.76 µM.
For the molecule `O=C(O)c1cccc(CC(Br)C(=O)O)c1` (stereo not drawn), the TGI in assay [8], in assay [1], in assay [2], in assay [3], in assay [4] and in assay [5] was above 100 µM throughout. The TGI in assay [6] and in assay [7] was above 100 µM throughout.
With `O=C(O)CC1(C(=O)O)CCCCC1`, the TGI in assay [8], in assay [1], in assay [2], in assay [3], in assay [4] and in assay [5] was above 100 µM throughout. The TGI in assay [6] and in assay [7] was above 100 µM each time.
Take `O=C(Cn1ccnc1[N+](=O)[O-])NCC(F)(F)C(F)(F)F`: the GI50 in assay [8], in assay [2], in assay [3], in assay [4], in assay [5] and in assay [6] was above 100 µM in each case. In addition, the GI50 in assay [7] was above 100 µM. Further, the TGI in assay [8], in assay [2], in assay [3], in assay [4], in assay [5] and in assay [6] was above 100 µM throughout. For the same molecule, the TGI in assay [7] is above 100 µM.
In the case of `CN1CCN(Cc2ccc(NC(=O)c3cncc(C#Cc4c(N)ncc5cc(F)ccc45)c3)cc2C(F)(F)F)CC1`, the GI50 was 0.884 µM in assay [8]; 1.04 µM in assay [1]; 0.887 µM in assay [2]; 0.489 µM in assay [3]; 1.44 µM in assay [4]; 2.4 µM in assay [5]. Also, the GI50 is 0.529 µM in assay [6] and 2.43 µM in assay [7]. Moreover, the TGI amounted to 1.9 µM in assay [8]; 2.65 µM in assay [1]; 1.73 µM in assay [2]; 1.38 µM in assay [3]; 5.06 µM in assay [4]; 12 µM in assay [5]. In addition, the TGI was determined as 1.4 µM in assay [6] and 4.98 µM in assay [7].
For the molecule `O=C(/C=C\Sc1nccc(C(F)(F)F)n1)c1ccc(Br)cc1`, the GI50 is 33.2 µM in assay [8]; 3.68 µM in assay [1]; above 100 µM in assay [2]; 20.4 µM in assay [3]; 18.7 µM in assay [4]; above 100 µM in assay [5]. Further, the figures for the GI50 in assay [6] and in assay [7] were 30.5 µM and 14.9 µM, respectively. Further, the TGI was above 100 µM in assay [8]; 11.9 µM in assay [1]; above 100 µM in assay [2]; 45.8 µM in assay [3]; 34 µM in assay [4]; above 100 µM in assay [5]. Further, the TGI in assay [6] was above 100 µM; in assay [7], 30.2 µM.
As for `COc1cc(-c2nc3ccccc3s2)ccc1OCc1nc2n(n1)S(=O)(=O)c1ccccc1N2C`, the GI50 in assay [8], in assay [1], in assay [2], in assay [3], in assay [4] and in assay [5] was above 100 µM each time. Besides, the GI50 in assay [6] was above 100 µM; in assay [7] it was 62.4 µM. The TGI in assay [8], in assay [1], in assay [2], in assay [3], in assay [4] and in assay [5] was above 100 µM each time. Further, the TGI in assay [6] and in assay [7] was above 100 µM in each case.
For the molecule `COc1cc2c(cc1OC)[C@@]1(C)C(=O)c3cc4c(cc3[C@H]1N(C)C2=O)OCO4`, the GI50 in assay [8] is 64.6 µM; in assay [1], 38 µM; in assay [2], 62.9 µM; in assay [3], above 100 µM; in assay [4] it was 34.8 µM; in assay [5] it was above 100 µM. Also, the GI50 in assay [6] was 65.4 µM; in assay [7] it was 96.2 µM. In addition, the TGI in assay [8], in assay [1], in assay [2], in assay [3], in assay [4] and in assay [5] was above 100 µM each time. The TGI in assay [6] and in assay [7] was above 100 µM each time.
In the case of `CCNc1nc(N2CC(=O)Nc3cc(OC)ccc32)c2ccccc2n1`, the GI50 in assay [8] was 0.00139 µM; in assay [1] it was 0.000404 µM; in assay [2], 0.000737 µM; in assay [5], 0.00227 µM; in assay [6], 0.000378 µM; in assay [7], 0.000352 µM. In addition, the TGI in assay [8] is above 100 µM; in assay [1] it was above 100 µM; in assay [2] it was above 100 µM; in assay [3], above 100 µM; in assay [4], above 100 µM; in assay [5], 14.2 µM. This molecule registered a TGI in assay [6] above 100 µM.
`CCOC(=O)c1c(Cl)c2c(n1Cc1cc(OC)cc(OC)c1)-c1oncc1CCC2`: the GI50 in assay [8] was 1.65 µM; in assay [1], 0.295 µM; in assay [2], 0.419 µM; in assay [3], 1.91 µM; in assay [4] it was 1.04 µM; in assay [5], 0.466 µM. The results for the GI50 in assay [6] and in assay [7] were 0.344 µM and 0.253 µM, respectively. In addition, the TGI is above 100 µM in assay [8]; above 100 µM in assay [1]; above 100 µM in assay [2]; above 85.3 µM in assay [3]; above 100 µM in assay [4]; above 33.3 µM in assay [5]. The TGI in assay [6] was above 100 µM; in assay [7], 2.51 µM.
Take `COc1cnc2c(c1)C(=O)c1c-2n(CCCN2CCN(C)CC2)c(=O)c2cc(Cl)ccc12`: the GI50 in assay [8] is 4.75 µM; in assay [1], 0.527 µM; in assay [2], 4.17 µM; in assay [3], 2.19 µM; in assay [4] it was 3.74 µM; in assay [5] it was 0.95 µM. In addition, the figures for the GI50 in assay [6] and in assay [7] were 0.299 µM and 15.1 µM, respectively. In addition, the TGI is 29.1 µM in assay [8]; 20.1 µM in assay [1]; above 100 µM in assay [2]; 18.1 µM in assay [3]; 22.8 µM in assay [4]; 36 µM in assay [5]. Further, the TGI in assay [6] stood at 12.8 µM; in assay [7], 29.3 µM.
In the case of `CC[C@H](C)C(=O)O[C@H]1CCC=C2C=C[C@H](C)C(CCC3C[C@@H](O)CC(=O)O3)[C@H]21` (stereo partly drawn), the GI50 in assay [8] is 1.94 µM; in assay [1], above 100 µM; in assay [2], 17.7 µM; in assay [3] it was 22.7 µM; in assay [5] it was 18.1 µM; in assay [6] it was 12 µM. For the same molecule, the TGI in assay [8], in assay [1], in assay [2], in assay [3], in assay [5] and in assay [6] was above 100 µM in each case. Besides, the TGI in assay [7] was above 100 µM.
In the case of `COC1CC2CCC(C)[C@](O)(O2)C(=O)C(=O)N2CCCCC2C(=O)OC(C(C)CC2CCC(O)C(OC)C2)CC(=O)C(C)C=C(C)C(OC(=O)CN(C)C)C(OC)C(=O)C(C)CC(C)/C=C/C=C/C=C\1C` (stereo partly drawn), the TGI in assay [8] worked out at 14.8 µM; in assay [1] it was 5.42 µM; in assay [2], 26.9 µM; in assay [4] it was 5.27 µM; in assay [5], 19.3 µM; in assay [6], 21.9 µM. In assay [7], this molecule had a TGI of 22 µM.
For the molecule `CCN(CC)CCOc1cc2c(C(=O)OC)c(C)oc2cc1C(C)=O`, the GI50 was 13.6 µM in assay [8]; 2.92 µM in assay [1]; 18.5 µM in assay [2]; 22.5 µM in assay [4]; 7.56 µM in assay [6]; 45.1 µM in assay [7]. The TGI is 32.6 µM in assay [8]; 7.59 µM in assay [1]; 38.4 µM in assay [2]; above 100 µM in assay [4]; 23.9 µM in assay [6]; above 100 µM in assay [7].
In the case of `ON(CCc1ccccn1)Cc1ccccc1`, the TGI in assay [8], in assay [2], in assay [3], in assay [4], in assay [5] and in assay [6] was above 100 µM each time. Besides, the TGI in assay [7] is above 100 µM.
For the molecule `CCOC(=O)c1cc2ncccc2c2ccccc12`, the TGI in assay [8], in assay [1], in assay [2], in assay [3], in assay [4] and in assay [5] was above 100 µM each time. This molecule also had a TGI in assay [7] above 100 µM.
